Assay results: US6777422B2, “Substituted tetrahydroisoquinolines as C5a receptor modulators” (Neurogen Corp., priority 2002, dated 2004)

Molecular target: T1, human C5a receptor (Homo sapiens, UniProt P21730)
T1 construct: endogenous in cells; host or cells: U937 cells differentiated with 1 mM dibutyryl cAMP
T1 sequence (P21730 1-350): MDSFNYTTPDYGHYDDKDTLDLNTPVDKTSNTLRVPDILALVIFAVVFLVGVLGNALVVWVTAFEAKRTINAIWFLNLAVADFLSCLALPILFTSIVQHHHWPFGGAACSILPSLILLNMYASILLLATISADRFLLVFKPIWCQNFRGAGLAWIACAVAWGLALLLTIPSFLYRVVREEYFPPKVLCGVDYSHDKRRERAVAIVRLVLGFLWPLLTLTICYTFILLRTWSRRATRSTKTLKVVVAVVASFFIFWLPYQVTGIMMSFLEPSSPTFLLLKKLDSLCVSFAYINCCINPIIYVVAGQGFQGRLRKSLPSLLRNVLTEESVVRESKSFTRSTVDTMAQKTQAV
Test: C5a receptor mediated calcium mobilization assay (Example 20)
Assay type: cell-based
Conditions: differentiated U937 cells, read-out: Ca2+ (Ki in the standard assay of C5a receptor mediated calcium mobilization)
Method in brief: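 Differentiated U937 cells (dibutyryl cAMP, 48 h) loaded with Fluo-3 were pre-incubated 1 h with compound at 1 μM, then challenged with 0.3 nM (final) human recombinant C5a. Calcium response monitored by FLIPR fluorescence (Ex 480/Em 530 nm); antagonism defined as ≥2-fold decrease versus C5a alone.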

Ki, < 1000 nM:
Cc1ccccc1C1c2ccccc2CCN1CC(=O)N(Cc1cc(O)ccc1F)C1Cc2ccccc2C1 (centres unmarked) [Compound 101, N-(indan-2-yl)-N-(2-fluoro-5-hydroxybenzyl)-2-[1-(2-methylphenyl)-3,4-dihydroisoquinolin-2(1H)-yl]acetamide]
C[C@@H](C(=O)N(Cc1ccccc1F)C1Cc2ccccc2C1)N1CCc2ccccc2[C@@H]1c1c(Cl)cccc1Cl [Compound 102, (2S)-2-[(1R)-1-(2,6-dichlorophenyl)-3,4-dihydroisoquinolin-2(1H)-yl]-N-(indan-2-yl)-N-(2-fluorobenzyl)propanamide]
C[C@@H](C(=O)N(Cc1ccccc1F)C1Cc2ccccc2C1)N1CCc2ccccc2[C@@H]1c1c(F)cccc1Cl [Compound 103, (2S)-2-[(1R)-1-(2-chloro-6-fluorophenyl)-3,4-dihydroisoquinolin-2(1H)-yl]-N-(indan-2-yl)-N-(2-fluorobenzyl)propanamide]
C[C@@H](C(=O)N(CCc1ccccc1F)Cc1ccc(O)cc1)N1CCc2ccccc2[C@@H]1c1ccccc1Cl [Compound 104, (2S)-2-[(1R)-1-(2-chlorophenyl)-3,4-dihydroisoquinolin-2(1H)-yl]-N-[2-(2-fluorophenyl)ethyl]-N-(4-hydroxybenzyl)propanamide]
C[C@@H](C(=O)N(Cc1cccc(C(=O)N(C)C)c1)C1Cc2ccccc2C1)N1CCc2ccccc2[C@@H]1c1ccccc1Cl [Compound 105, 3-{[{(2S)-2-[(1R)-1-(2-chlorophenyl)-3,4-dihydroisoquinolin-2(1H)-yl]propanoyl}(indan-2-yl)amino]methyl}-N,N-dimethylbenzamide]
Cc1cc(CN(C(=O)[C@H](C)N2CCc3ccccc3[C@@H]2c2ccccc2Cl)C2Cc3ccccc3C2)cc(C)c1O [Compound 106, (2S)-2-[(1R)-1-(2-chlorophenyl)-3,4-dihydroisoquinolin-2(1H)-yl]-N-(indan-2-yl)-N-(4-hydroxy-3,5-dimethylbenzyl)propanamide]
C[C@@H](C(=O)N(CCc1ccccc1)CCc1ccccc1F)N1CCc2ccccc2[C@@H]1c1ccccc1Cl [Compound 108, (2S)-2-[(1R)-1-(2-chlorophenyl)-3,4-dihydroisoquinolin-2(1H)-yl]-N-[2-(2-fluorophenyl)ethyl]-N-(2-phenylethyl)propanamide]
C[C@@H](C(=O)N(CCc1ccccc1F)Cc1ccccc1F)N1CCc2ccccc2[C@@H]1c1ccccc1Cl [Compound 109, (2S)-2-[(1R)-1-(2-chlorophenyl)-3,4-dihydroisoquinolin-2(1H)-yl]-N-(2-fluorobenzyl)-N-[2-(2-fluorophenyl)ethyl] propanamide]
Cc1cc(CN(C(=O)[C@H](C)N2CCc3ccccc3[C@@H]2c2c(Cl)cccc2Cl)C2Cc3ccccc3C2)cc(C)c1O [Compound 110, (2S)-2-[(1R)-1-(2,6-dichlorophenyl)-3,4-dihydroisoquinolin-2(1H)-yl]-N-(indan-2-yl)-N-(4-hydroxy-3,5-dimethylbenzyl) propanamide]
C[C@@H](C(=O)N(Cc1cccc(C#N)c1)C1Cc2ccccc2C1)N1CCc2ccccc2[C@@H]1c1ccccc1Cl [Compound 111, (2S)-2-[(1R)-1-(2-chlorophenyl)-3,4-dihydroisoquinolin-2(1H)-yl]-N-(3-cyanobenzyl)-N-(indan-2-yl)propanamide]
C[C@@H](C(=O)N(Cc1cccc([N+](=O)[O-])c1)C1Cc2ccccc2C1)N1CCc2ccccc2[C@@H]1c1ccccc1Cl [Compound 112, (2S)-2-[(1R)-1-(2-chlorophenyl)-3,4-dihydroisoquinolin-2(1H)-yl]-N-(indan-2-yl)-N-(3-nitrobenzyl)propanamide]
Cc1ccccc1[C@H]1c2ccccc2CCN1CC(=O)N(Cc1cccc(O)c1)C1Cc2ccccc2C1 [Compound 113, N-(indan-2-yl)-N-(3-hydroxybenzyl)-2-[(1S)-1-(2-methylphenyl)-3,4-dihydroisoquinolin-2(1H)-yl]acetamide]
C[C@@H](C(=O)N(Cc1cccc(O)c1)C1Cc2ccccc2C1)N1CCc2ccccc2[C@@H]1c1ccccc1Cl [Compound 114, (2S)-2-[(1R)-1-(2-chlorophenyl)-3,4-dihydroisoquinolin-2(1H)-yl]-N-(indan-2-yl)-N-(3-hydroxybenzyl)propanamide]
C[C@@H](C(=O)N(Cc1cccc(O)c1F)C1Cc2ccccc2C1)N1CCc2ccccc2[C@@H]1c1ccccc1Cl [Compound 115, (2S)-2-[(1R)-1-(2-chlorophenyl)-3,4-dihydroisoquinolin-2(1H)-yl]-N-(indan-2-yl)-N-(2-fluoro-3-hydroxybenzyl)propanamide]
Cc1ccccc1C1c2c(Cl)cccc2CCN1CC(=O)N(Cc1ccccc1F)C1Cc2ccccc2C1 (centres unmarked) [Compound 116, 2-[8-chloro-1-(2-methylphenyl)-3,4-dihydroisoquinolin-2(1H)-yl]-N-(indan-2-yl)-N(2-fluorobenzyl)acetamide]
O=C(CN1CCc2cccc(Cl)c2C1c1c(F)cccc1Cl)N(Cc1ccccc1F)C1Cc2ccccc2C1 (centres unmarked) [Compound 117, 2-[8-chloro-1-(2-chloro-6-fluorophenyl)-3,4-dihydroisoquinolin-2(1H)-yl]-N-(indan-2-yl)-N-(2-fluorobenzyl)acetamide]
C[C@@H](C(=O)N(CCc1ccc(O)cc1)Cc1ccccc1F)N1CCc2ccccc2[C@@H]1c1cccc2ccccc12 [Compound 118, (2S)-N-(2-fluorobenzyl)-N-[2-(4-hydroxyphenyl)ethyl]-2-[(1R)-1-(1-naphthyl)-3,4-dihydroisoquinolin-2(1H)-yl]propanamide]
C[C@@H](C(=O)N(CCc1c[nH]c2ccccc12)Cc1ccccc1F)N1CCc2ccccc2[C@@H]1c1cccc2ccccc12 [Compound 119, (2S)-N-(2-fluorobenzyl)-N-[2-(1H-indol-3-yl)ethyl]-2-[(1R)-1-(1-naphthyl)-3,4-dihydroisoquinolin-2(1H)-yl]propanamide]
C[C@@H](C(=O)N(Cc1cccc(OC(F)F)c1F)C1Cc2ccccc2C1)N1CCc2ccccc2[C@@H]1c1ccccc1Cl [Compound 120, (2S)-2-[(1R)-1-(2-chlorophenyl)-3,4-dihydroisoquinolin-2(1H)-yl]-N-[3-(difluoromethoxy)-2-fluorobenzyl]-N-(indan-2-yl)propanamide]
COc1ncccc1CN(C(=O)[C@H](C)N1CCc2ccccc2[C@@H]1c1cccc2ccccc12)C1Cc2ccccc2C1 [Compound 121, (2S)-N-(indan-2-yl)-N-[(2-methoxypyridin-3-yl)methyl]-2-[(1R)-1-(1-naphthyl)-3,4-dihydroisoquinolin-2(1H)-yl]propanamide]
COc1ncccc1CN(Cc1ccccc1F)C(=O)[C@H](C)N1CCc2ccccc2[C@@H]1c1cccc2ccccc12 [Compound 122, (2S)-N-(2-fluorobenzyl)-N-[(2-methoxypyridin-3-yl)methyl]-2-[(1R)-1-(1-naphthyl)-3,4-dihydroisoquinolin-2(1H)-yl]propanamide]
O=C(CN1CCc2ccccc2C1c1ccc(O)cc1)N(Cc1ccccc1F)C1Cc2ccccc2C1 (centres unmarked) [Compound 123, N-(indan-2-yl)-N-(2-fluorobenzyl)-2-[1-(4-hydroxyphenyl)-3,4-dihydroisoquinolin-2(1H)-yl]acetamide]
COc1cccc(CN(C(=O)[C@H](C)N2CCc3ccccc3[C@@H]2c2cccc3ccccc23)C2Cc3ccccc3C2)n1 [Compound 124, (2S)-N-(indan-2-yl)-N-[(6-methoxypyridin-2-yl)methyl]-2-[(1R)-1-(1-naphthyl)-3,4-dihydroisoquinolin-2(1H)-yl]propanamide]
COc1cccc(CN(Cc2ccccc2F)C(=O)[C@H](C)N2CCc3ccccc3[C@@H]2c2cccc3ccccc23)n1 [Compound 125, (2S)-N-(2-fluorobenzyl)-N-[(6-methoxypyridin-2-yl)methyl]-2-[(1R)-1-(1-naphthyl)-3,4-dihydroisoquinolin-2(1H)-yl]propanamide]
C[C@@H](C(=O)N(Cc1ncccc1F)C1Cc2ccccc2C1)N1CCc2ccccc2[C@@H]1c1cccc2ccccc12 [Compound 126, (2S)-N-(indan-2-yl)-N-[(3-fluoropyridin-2-yl)methyl]-2-[(1R)-1-(1-naphthyl)-3,4-dihydroisoquinolin-2(1H)-yl]propanamide]
COc1cncc(CN(C(=O)[C@H](C)N2CCc3ccccc3[C@@H]2c2cccc3ccccc23)C2Cc3ccccc3C2)c1 [Compound 127, (2S)-N-(indan-2-yl)-N-[(5-methoxypyridin-3-yl)methyl]-2-[(1R)-1-(1-naphthyl)-3,4-dihydroisoquinolin-2(1H)-yl]propanamide]

Same assay, conditions: differentiated U937 cells, unit inferred, read-out: Ca2+ (numeric value, C5a receptor mediated calcium mobilization)

Ki, 547 nM:
Cc1ccccc1C1C(C)CCCN1CC(=O)N(Cc1ccccc1F)C1Cc2ccccc2C1 (centres unmarked) [Compound 128, N-(2-Fluoro-benzyl)-N-indan-2-yl-2-(3-methyl-2-o-tolyl-piperidin-1-yl)-acetamide]

Ki, 405 nM:
COc1ccccc1C1CCCCN1CC(=O)N(Cc1ccccc1F)C1Cc2ccccc2C1 (centres unmarked) [Compound 130, N-(2-Fluoro-benzyl)-N-indan-2-yl-2-[2-(2-methoxy-phenyl)-piperidin-1-yl]-acetamide]

Ki, 131 nM:
Cc1ccccc1C1CCCCN1CC(=O)N(Cc1ccccc1F)C1Cc2ccccc2C1 (centres unmarked) [Compound 129, N-(2-Fluoro-benzyl)-N-indan-2-yl-2-(2-o-tolyl-piperidin-1-yl)-acetamide]
